Experiments:
[1] = tested on: MHC class I expression on COLO 205 cells; assay: MHC class I expression on COLO 205 cells, 24 hours, flow cytometry (W6/32); settings: for fold induction at 10 µM / fold induction at 20 µM / fold induction at 30 µM / fold induction at 40 µM: Homo sapiens, COLO 205
Protocol: FIG. 2A-2F. […] Cells were treated for 24 hours and cell surface MHC class I expression was measured by flow cytometry.
Cannabigerol was also tested for its capacity to induce MHC class I expression in a human colorectal carcinoma cell line, COLO 205. The cells were treated with either 25 μM or 50 μM cannabigerol for 24 hours. Fluorophor (Alexa Fluor 488)-conjugated W6/32 antibody (Thermo Fisher) was used in a flow cytometry assay to quantitate MHC class I expression. […] Cannabigerol is only one of many cannabinoid-like molecules with potential biopharmaceutical activity. […] COLO 205 cells were treated with up to 40 μM of the cannabinoids 1-5 presented in Tables 1 and 2 and evaluated for cell surface MHC class I expression as described above for cannabigerol.

[2] = tested on: MHC-I expression on COLO 205 cells; assay: Phytocannabinoid MHC-I induction on COLO 205 cells, 0-100 μM, 48 hours; settings: for Fold Induction: MHC-I expression on COLO 205 cells, relative to control cells treated only with buffer
Protocol: FIG. 4. Cell surface MHC class I expression was measured by flow cytometry (MFI).
Phytocannabinoids were tested for MHC-I-inducing activity on COLO 205 cells. Each cannabinoid was tested at a concentration range of 0-100 μM. […] “ND” indicates not determined.

[3] = tested on: MHC-I expression, COLO 205 cells; assay: Time course of MHC-I expression in CBD-treated COLO 205 cells; assay type: cell-based, human; settings: COLO 205, 15 μM
Protocol: FIG. 5. MHC-I expression (MFI) is induced over time in CBD-treated COLO 205 cells.
To determine whether changes in gene expression play a role in cannabinoid-induced MHC-I expression, COLO 205 cells were incubated with 15 μM CBD and cells were harvested at 6, 12, 24, and 48 hours for determination of MHC-I expression by flow cytometry.

[4] = tested on: MHC class I expression, mouse Lewis lung carcinoma cell line A9; assay: MHC class I expression in mouse A9 Lewis lung carcinoma cells, 24 hours, flow cytometry; assay type: cell-based; settings: 100 ng/ml, positive control
Protocol: FIG. 1A-1B. Cannabigerol stimulates MHC class I expression in the mouse A9 Lewis lung carcinoma (FIG. 1A) and the human COLO 205 colorectal carcinoma (FIG. 1B) cell lines. Cells were treated for 24 hours with 21.2 μM (A) or 25 and 50 μM (FIG. 1B) cannabigerol.
Cannabigerol, a representative cannabinoid, was tested for its ability to also stimulate MHC class I expression in mammalian cancer cell lines. The mouse Lewis lung carcinoma cell line, A9, was treated with 21 μM of cannabigerol for 24 hours prior to flow cytometric analysis of cell surface expression of MHC class I expression levels using the MHC class I antibody W6/32 (Thermo Fisher). Control conditions included the vehicle, dimethyl sulfoxide (DMSO, 1%) alone, and 100 ng/ml of trichostatin A (TSA), a histone deacetylase inhibitor and known inducer of MHC class I expression in mammalian cells. […] The positive control, TSA, stimulated expression by 2.4-fold.

[5] = tested on: MHC-I expression, human cancer cell lines; assay: MHC-I expression restoration by IFN-γ in human cancer cell lines; assay type: cell-based; settings: 48 hours
Protocol: (§1) FIG. 3A-3B. […] MHC-I downregulation is reversible in the majority of human and mouse cancer cell lines.
(§2) MHC-I expression may be restored in cancers, such as those with intact antigen processing machinery (APM) genes. Various human and mouse cancer cell lines were treated with dose titrations of recombinant human and mouse IFN-γ, respectively. The cells were incubated with IFN-γ for 48 hours in a humidified chamber at 37° C., stained with fluorescent haplotype-appropriate MHC-I antibody, then signal was determined by flow cytometry. Cancers represented in this experiment include brain (SK-N-MC), breast (4T1, EMT6), colorectal (COLO 205, SNU-C1, DLD-1, LS123, LS411N, LoVo, CT26, MC38), kidney (Renca), lung (NCI-H146, LLC), lymphoid (A20), and skin (A431, SK-MEL-2, B16F10). IFN-γ induced MHC-I expression in a dose-dependent manner in 6/10 (60%) human and 6/9 mouse (67%) cell lines. […] The results are found in FIGS. 3A-3B.

[6] = tested on: MHC-I expression, mouse cancer cell lines; assay: MHC-I expression restoration by IFN-γ in mouse cancer cell lines; assay type: cell-based; settings: 48 hours
Protocol: as §1, §2

[7] = COLO 205, 10 μM, W6/32 staining
[8] = COLO 205, 20 μM, W6/32 staining
[9] = COLO 205, 30 μM, W6/32 staining
[10] = COLO 205, 40 μM, W6/32 staining
[11] = induction of MHC-I expression on COLO 205 cells, 0-100 μM, 48 hours

CCCCCc1cc(O)c2c(c1)OC(C)(CCC=C(C)C)C=C2 (stereo not shown) [Example 3, 2-methyl-2-(4-methyl-3-penten-1-yl)-7-pentyl-2H-1-benzopyran-5-ol]
MFI [1, 7]: 120
MFI [1, 8]: 148
MFI [1, 9]: 177
MFI [1, 10]: 280
fold induction at 10 µM [1]: 0.99
fold induction at 20 µM [1]: 1.22
fold induction at 30 µM [1]: 1.46
fold induction at 40 µM [1]: 2.31
EC50 ([2]; Homo sapiens, COLO 205, 48 h): 20 µM
Fold Induction ([2]; 0-100 μM, 48 hours): 1.6 Fold

C=C(C)[C@@H]1CCC(C)=CC1c1c(O)cc(CCCCC)cc1O (stereo partly drawn) [Example 2, 2-[1R-3-methyl-6R-(1-methylethenyl)-2-cyclohexen-1-yl]-5-pentyl-1,3-benzenediol]
MFI [1, 7]: 141
MFI [1, 8]: 205
MFI [1, 9]: 199
MFI [1, 10]: 82
fold induction at 10 µM [1]: 1.17
fold induction at 20 µM [1]: 1.69
fold induction at 30 µM [1]: 1.64
fold induction at 40 µM [1]: 0.68
EC50 ([2]; Homo sapiens, COLO 205, 48 h): 10 µM
Fold Induction ([2]; 0-100 μM, 48 hours): 2.8 Fold
MHC-I expression ([3]; 48 hr): robust induction
MHC-I expression ([3]; by 24 hours): slight increase

CC(/C=C/C(=O)NO)=C\[C@@H](C)C(=O)c1ccc(N(C)C)cc1 [TSA, trichostatin A, reference compound]
increase in MHC class I expression [4]: 2.4 fold

CCCc1cc(O)c2c(c1)OC(C)(C)[C@@H]1CCC(C)=C[C@@H]21 [Example 5, 6aR,7,8,10aR-tetrahydro-6,6,9-trimethyl-3-propyl-6H-dibenzo[b,d]pyran-1-ol]
MFI [1, 7]: 152
MFI [1, 8]: 192
MFI [1, 9]: 235
MFI [1, 10]: 242
fold induction at 10 µM [1]: 1.26
fold induction at 20 µM [1]: 1.59
fold induction at 30 µM [1]: 1.94
fold induction at 40 µM [1]: 2
EC50 ([2]; Homo sapiens, COLO 205, 48 h): 15 µM
Fold Induction ([2]; 0-100 μM, 48 hours): 3.0 Fold

CCCCCc1cc(O)c2c(c1)OC(C)(C)c1ccc(C)cc1-2 [Example 4, 6,6,9-trimethyl-3-pentyl-6H-dibenzo[b,d]pyran-1-ol]
MFI [1, 7]: 120
MFI [1, 8]: 160
MFI [1, 9]: 253
MFI [1, 10]: 253
fold induction at 10 µM [1]: 0.99
fold induction at 20 µM [1]: 1.32
fold induction at 30 µM [1]: 2.09
fold induction at 40 µM [1]: 2.09
EC50 ([2]; Homo sapiens, COLO 205, 48 h): 25 µM
Fold Induction ([2]; 0-100 μM, 48 hours): 1.8 Fold

Interferon-γ: a natural cytokine known to stimulate MHC class I expression in many mammalian cells
MFI ([1]; COLO 205, 0.004 ng/mL): 119
MFI ([1]; COLO 205, 0.012 ng/mL): 193
MFI ([1]; COLO 205, 0.040 ng/mL): 250
MFI ([1]; COLO 205, 0.110 ng/mL): 321
MFI ([1]; COLO 205, 1.000 ng/mL): 483
MFI ([1]; COLO 205, 3.000 ng/mL): 482
increase in MHC class I expression (maximum) ([1]; COLO 205, interferon-γ reference): ≤ 4 fold
cell lines with dose-dependent induction of MHC-I expression [5]: 6/10
cell lines with dose-dependent induction of MHC-I expression [6]: 6/9

CCCCCc1cc(O)c2c(c1)OC(C)(C)[C@@H]1CC=C(C)C[C@@H]21 [Example 383, 6aR,7,10,10aR-tetrahydro-6,6,9-trimethyl-3-pentyl-6H-dibenzo[b,d]pyran-1-ol]
Fold Induction ([2]; 0-100 μM, 48 hours): 4.1 Fold
EC50 [2, 11]: 27 µM

C=C(C)[C@@H]1CCC(C)=C[C@H]1c1c(O)cc(CCC)cc1O [Example 386, 2-[(1R,6R)-3-methyl-6-(1-methylethenyl)-2-cyclohexen-1-yl]-5-propyl-1,3-benzenediol]
EC50 ([2]; Homo sapiens, COLO 205, 48 h): 19 µM
Fold Induction ([2]; 0-100 μM, 48 hours): 5.5 Fold

CCCCCc1cc(O)c2c(c1)OC(C)(C)[C@@H]1CCC(C)=C[C@@H]21 [Example 384, 6aR,7,8,10aR-tetrahydro-6,6,9-trimethyl-3-pentyl-6H-dibenzo[b,d]pyran-1-ol]
Fold Induction ([2]; 0-100 μM, 48 hours): 6.1 Fold
EC50 [2, 11]: 30 µM

CCCCCc1cc(O)c2c(c1)OC1(C)CCC3C1C2C3(C)C [Example 390, (1aS,1a^1R,3aR,8bR)-1,1,3a-trimethyl-6-pentyl-1a,1a^1,2,3,3a,8b-hexahydro-1H-4-oxabenzo[f]cyclobuta[cd]inden-8-ol]
EC50 ([2]; Homo sapiens, COLO 205, 48 h): 20 µM
Fold Induction ([2]; 0-100 μM, 48 hours): 4.2 Fold

CCCCC/C=C\C/C=C\C/C=C\C/C=C\CCCC(=O)OC(CO)CO [Example 2-AG, 2-Arachidonoylglycerol, reference compound]
MHC-I expression induction ([2]; COLO 205, endogenous cannabinoids): do not induce MHC-I expression
